Assay results published in US9556150B2, “Inhibitors of bruton's tyrosine kinase” (Hoffmann-La Roche Inc., priority 2013, dated 2017).

These compounds were tested against Bruton's Tyrosine Kinase (BTK), inactivated state (Homo sapiens (Human), UniProt Q06187) (assay: Bruton's Tyrosine Kinase (BTK) Inhibition TR-FRET (Time Resolved FRET) competition assay). Conditions: TR-FRET competition with Kinase Tracer 178, BTK-Eu complex, 18-24 h at 14° C.
Bruton's Tyrosine Kinase (BTK), inactivated state, sequence (Q06187 whole entry): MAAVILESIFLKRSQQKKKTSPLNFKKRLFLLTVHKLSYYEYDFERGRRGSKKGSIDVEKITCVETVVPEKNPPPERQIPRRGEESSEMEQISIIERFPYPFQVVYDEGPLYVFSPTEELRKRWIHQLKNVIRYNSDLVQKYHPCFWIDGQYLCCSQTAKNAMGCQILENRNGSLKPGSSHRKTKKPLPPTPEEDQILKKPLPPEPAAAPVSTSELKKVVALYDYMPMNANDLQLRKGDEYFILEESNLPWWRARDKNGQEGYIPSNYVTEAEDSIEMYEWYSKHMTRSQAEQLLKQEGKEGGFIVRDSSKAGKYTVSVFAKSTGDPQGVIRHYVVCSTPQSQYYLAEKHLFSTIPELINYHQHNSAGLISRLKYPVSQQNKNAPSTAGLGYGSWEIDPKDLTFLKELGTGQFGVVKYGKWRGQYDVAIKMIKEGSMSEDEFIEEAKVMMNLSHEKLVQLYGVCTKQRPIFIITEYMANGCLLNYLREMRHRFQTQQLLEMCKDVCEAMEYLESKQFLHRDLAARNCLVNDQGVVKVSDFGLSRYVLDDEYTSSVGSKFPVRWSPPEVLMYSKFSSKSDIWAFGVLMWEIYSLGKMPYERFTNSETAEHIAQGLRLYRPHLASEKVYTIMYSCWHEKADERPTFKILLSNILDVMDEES
Format: binding
Procedure: Bruton's Tyrosine Kinase (BTK) Inhibition TR-FRET (Time Resolved FRET) Assay
This BTK competition assay measures compound potency (IC50) for the inactivated state of Bruton's Tyrosine Kinase using FRET (Förster/Fluorescence Resonance Energy Transfer) technology. The BTK-Eu complex was incubated on ice one hour prior to use at a starting concentration of 50 nM BTK-Bioease™: 10 nM Eu-streptavidin (Perkin-Elmer Catalog#AD0062). The assay buffer consisted of 20 mM HEPES (pH 7.15), 0.1 mM DTT, 10 mM MgCl2, 0.5 mg/ml BSA with 3% Kinase Stabilizer (Fremont Biosolutions, Catalog #STB-K02). After 1 h, the reaction mixture from above was diluted 10 fold in assay buffer to make 5 nM BTK: 1 nM Eu-Streptavidin complex (donor fluorophore). 18 μl of a mixture of 0.11 nM BTK-Eu and 0.11 nM Kinase Tracer 178 (Invitrogen, Catalog #PV5593,) with BTK-Eu alone as no negative control, was then dispensed into 384-well flat bottom plates (Greiner, 784076). Compounds to be tested in assay were prepared as 10× concentrations and serial dilution in half-log increments was performed in DMSO so as to generate 10 point curves. To initiate the FRET reaction, compounds prepared as 10× stock in DMSO was added to the plates and the plates were incubated 18-24 h at 14° C.
After the incubation the plates were read on a BMG Pherastar Fluorescent plate reader (or equivalent) and used to measure the emission energy from the europium donor fluorophore (620 nm emission) and the FRET (665 nm emission). The negative control well values were averaged to obtain the mean minimum. The positive “no inhibitor” control wells were averaged to obtain the mean maximum. Percent of maximal FRET was calculated using following equation: % max FRET=100×[(FSR cmpd−FSR mean min)/(FSR mean max−FSR mean min)]
where FSR=FRET Signal ratio. % Max FRET curves were plotted in Activity Base (Excel) and the IC50(%), hill slope, z′ and % CV were determined. The mean IC50 and standard deviation will be derived from duplicate curves (singlet inhibition curves from two independent dilutions) using Microsoft Excel.
Representative compound data for this assay are listed below in Table II.
In the case of COCCNC(=O)c1ccc2[nH]c(C(=O)c3cnn(-c4ccc(Oc5cccc(F)c5F)cc4C)c3N)cc2c1 [Example I-35, 2-{5-Amino-1-[4-(2,3-difluoro-phenoxy)-2-methyl-phenyl]-1H-pyrazole-4-carbonyl}-1H-indole-5-carboxylic acid (2-methoxy-ethyl)-amide], the IC50 is reported as 1.8 nM. Compound Nc1c(C(=O)c2cc3cc(C(=O)N4CCOCC4)ccc3[nH]2)cnn1-c1ccc(Oc2cccc(F)c2F)cc1 [Example I-12, {5-Amino-1-[4-(2,3-difluoro-phenoxy)-phenyl]-1H-pyrazol-4-yl}-[5-(morpholine-4-carbonyl)-1H-indol-2-yl]-methanone] has an IC50 of 13 nM. With N#Cc1cccc(Oc2ccc(-n3ncc(C(=O)c4cc5cc(C(=O)O)ccc5[nH]4)c3N)c(Cl)c2)c1 [Example I-34, 2-{5-Amino-1-[2-chloro-4-(3-cyano-phenoxy)-phenyl]-1H-pyrazole-4-carbonyl}-1H-indole-5-carboxylic acid] the IC50 was 25.1 nM. Cc1cc(Oc2cccc(C#N)c2)ccc1-n1ncc(C(=O)c2nc3cc(C(=O)N4CCOCC4)ccc3[nH]2)c1N [Example I-39, 3-(4-{5-Amino-4-[5-(morpholine-4-carbonyl)-1H-benzoimidazole-2-carbonyl]-pyrazol-1-yl}-3-methyl-phenoxy)-benzonitrile] was tested, and the IC50 was 24 nM. CN1CCN(C(=O)c2ccc3[nH]c(C(=O)c4cnn(-c5ccc(Oc6ccccc6C(=O)N(C)C)cc5Cl)c4N)cc3c2)CC1 [Example I-46, 2-(4-{5-Amino-4-[5-(4-methyl-piperazine-1-carbonyl)-1H-indole-2-carbonyl]-pyrazol-1-yl}-3-chloro-phenoxy)-N,N-dimethyl-benzamide] gave an IC50 of 4.2 nM. Nc1c(C(=O)c2cc3cc(C(=O)N4CCOCC4)ccc3[nH]2)cnn1-c1ccc(Oc2ccccc2F)cc1Cl [Example I-15, {5-Amino-1-[2-chloro-4-(2-fluoro-phenoxy)-phenyl]-1H-pyrazol-4-yl}-[5-(morpholine-4-carbonyl)-1H-indol-2-yl]-methanone] gave an IC50 of 0.82 nM. CNC1CCN(C(=O)c2ccc3[nH]c(C(=O)c4cnn(-c5ccc(Oc6ccccc6C(=O)N(C)C)cc5Cl)c4N)cc3c2)CC1 [Example I-58, 2-(4-{5-Amino-4-[5-(4-methylamino-piperidine-1-carbonyl)-1H-indole-2-carbonyl]-pyrazol-1-yl}-3-chloro-phenoxy)-N,N-dimethyl-benzamide] gave an IC50 of 2.1 nM. CN(C)CCNC(=O)c1ccc2[nH]c(C(=O)c3cnn(-c4ccc(Oc5ccccc5C(=O)N(C)C)cc4Cl)c3N)cc2c1 [Example I-49, 2-{5-Amino-1-[2-chloro-4-(2-dimethylcarbamoyl-phenoxy)-phenyl]-1H-pyrazole-4-carbonyl}-1H-indole-5-carboxylic acid (2-dimethylamino-ethyl)-amide] was tested, and the IC50 was 1.4 nM. N#Cc1cccc(Oc2ccc(-n3ncc(C(=O)c4cc5cc(C(=O)NS(=O)(=O)C6CC6)ccc5[nH]4)c3N)c(Cl)c2)c1 [Example I-45, Cyclopropanesulfonic acid (2-{5-amino-1-[2-chloro-4-(3-cyano-phenoxy)-phenyl]-1H-pyrazole-4-carbonyl}-1H-indole-5-carbonyl)-amide] was tested, and the IC50 was 1.7 nM. Cc1cc(Oc2cccc(C#N)c2)ccc1-n1ncc(C(=O)c2cc3cc(C(=O)N4CCOCC4)ccc3[nH]2)c1N [Example I-18, 3-(4-{5-Amino-4-[5-(morpholine-4-carbonyl)-1H-indole-2-carbonyl]-pyrazol-1-yl}-3-methyl-phenoxy)-benzonitrile] gave an IC50 of 5.2 nM. Compound CN(C)C(=O)c1ccccc1Oc1ccc(-n2ncc(C(=O)c3cc4cc(C(=O)N5CCC(N(C)C)C5)ccc4[nH]3)c2N)c(Cl)c1 (stereo not shown) [Example I-50, 2-(4-{5-Amino-4-[5-(3-dimethylamino-pyrrolidine-1-carbonyl)-1H-indole-2-carbonyl]-pyrazol-1yl}-3-chloro-phenoxy)-N,N-dimethyl-benzamide] has an IC50 of 2.5 nM. Work on N#CNC(=O)c1ccc2[nH]c(C(=O)c3cnn(-c4ccc(Oc5cccc(C#N)c5)cc4Cl)c3N)cc2c1 [Example I-41, 2-{5-Amino-1-[2-chloro-4-(3-cyano-phenoxy)-phenyl]-1H-pyrazole-4-carbonyl}-N-cyano-1H-indole-5-carboxylic acid amide] yielded an IC50 of 52 nM. Compound Cc1cc(Oc2cccc(C#N)c2)ccc1-n1ncc(C(=O)c2nc3cc(C(=O)O)ccc3[nH]2)c1N [Example I-42, 2-{5-Amino-1-[4-(3-cyano-phenoxy)-2-methyl-phenyl]-1H-pyrazole-4-carbonyl}-1H-benzoimidazole-5-carboxylic acid] has an IC50 of 130 nM. Compound CN(C)C(=O)c1ccccc1Oc1ccc(-n2ncc(C(=O)c3cc4cc(C(=O)NCCN(C)C(=O)OC(C)(C)C)ccc4[nH]3)c2N)c(Cl)c1 [Example I-55, {2-[(2-{5-Amino-1-[2-chloro-4-(2-dimethylcarbamoyl-phenoxy)-phenyl]-1H-pyrazole-4-carbonyl}-1H-indole-5-carbonyl)-amino]-ethyl}-methyl-carbamic acid tert-butyl ester] has an IC50 of 5.1 nM. CN1CCN(C(=O)c2ccc3[nH]c(C(=O)c4cnn(-c5ccc(Oc6cccc(C(=O)N(C)C)c6)cc5Cl)c4N)cc3c2)CC1 [Example I-47, 3-(4-{5-Amino-4-[5-(4-methyl-piperazine-1-carbonyl)-1H-indole-2-carbonyl]-pyrazol-1-yl}-3-chloro-phenoxy)-N,N-dimethyl-benzamide] gave an IC50 of 32 nM. Cc1cc(Oc2cccc(C(C)(C)C)c2)ccc1-n1ncc(C(=O)c2cc3cc(C(=O)N4CCOCC4)ccc3[nH]2)c1N [Example I-19, {5-Amino-1-[4-(3-tert-butyl-phenoxy)-2-methyl-phenyl]-1H-pyrazol-4-yl}-[5-(morpholine-4-carbonyl)-1H-indol-2-yl]-methanone] gave an IC50 of 6.8 nM. N#Cc1cc(Oc2cccc(F)c2F)ccc1-n1ncc(C(=O)c2cc3cc(C(=O)N4CCOCC4)ccc3[nH]2)c1N [Example I-21, 2-{5-Amino-4-[5-(morpholine-4-carbonyl)-1H-indole-2-carbonyl]-pyrazol-1-yl}-5-(2,3-difluoro-phenoxy)-benzonitrile] showed an IC50 greater than 100000 nM. In the case of Cc1cc(Oc2cccc(F)c2F)ccc1-n1ncc(C(=O)c2cc3cc(C(=O)N4CCOCC4)ccc3[nH]2)c1N [Example I-5], the IC50 is reported as 2.3 nM. COCCNC(=O)c1ccc2[nH]c(C(=O)c3cnn(-c4ccc(Oc5cccc(C#N)c5)cc4C)c3N)nc2c1 [Example I-40, 2-{5-Amino-1-[4-(3-cyano-phenoxy)-2-methyl-phenyl]-1H-pyrazole-4-carbonyl}-1H-benzoimidazole-5-carboxylic acid (2-methoxy-ethyl)-amide] was tested, and the IC50 was 23 nM. Nc1c(C(=O)c2cc3cc(C(=O)N4CCOCC4)ccc3[nH]2)cnn1-c1ccc(Oc2cc(F)ccc2F)nc1 [Example I-13, {5-Amino-1-[6-(2,5-difluoro-phenoxy)-pyridin-3-yl]-1H-pyrazol-4-yl}-[5-(morpholine-4-carbonyl)-1H-indol-2-yl]-methanone] was tested, and the IC50 was 530 nM. For COC(=O)c1ccc2[nH]c(C(=O)c3cnn(-c4ccc(Oc5cccc(C#N)c5)cc4C)c3N)nc2c1 [Example I-38, 2-{5-Amino-1-[4-(3-cyano-phenoxy)-2-methyl-phenyl]-1H-pyrazole-4-carbonyl}-1H-benzoimidazole-5-carboxylic acid methyl ester], the IC50 was 150 nM. In the case of CN(C)C(=O)c1ccccc1Oc1ccc(-n2ncc(C(=O)c3cc4cc(C(=O)N5CCOCC5)ccc4[nH]3)c2N)c(Cl)c1 [Example I-57, 2-(4-{5-Amino-4-[5-(morpholine-4-carbonyl)-1H-indole-2-carbonyl]-pyrazol-1-yl}-3-chloro-phenoxy)-N,N-dimethyl-benzamide], the IC50 is reported as 3.3 nM. Compound Nc1c(C(=O)c2cc3cc(C(=O)N4CCOCC4)ccc3[nH]2)cnn1-c1ccc(Oc2cccc(F)c2F)cc1O [Example I-29, {5-Amino-1-[4-(2,3-difluoro-phenoxy)-2-hydroxy-phenyl]-1H-pyrazol-4-yl}-[5-(morpholine-4-carbonyl)-1H-indol-2-yl]-methanone] has an IC50 of 4.3 nM. For Nc1c(C(=O)c2cc3cc(C(=O)N4CCOCC4)ccc3[nH]2)cnn1-c1ccc(Oc2ccccc2)cc1Cl [Example I-14, [5-Amino-1-(2-chloro-4-phenoxy-phenyl)-1H-pyrazol-4-yl]-[5-(morpholine-4-carbonyl)-1H-indol-2-yl]-methanone], the IC50 was 0.46 nM. With Cc1cc(Oc2ccccc2)ccc1-n1ncc(C(=O)c2cc3cc(C(=O)N4CCOCC4)ccc3[nH]2)c1N [Example I-7, {2-[5-Amino-1-(2-methyl-4-phenoxy-phenyl)-1H-pyrazole-4-carbonyl]-1H-indol-5-yl}-morpholin-4-yl-methanone] the IC50 was 2.6 nM.
